What was measured:
[1] = Stability in human liver microsomes assessed as intrinsic clearance at 1.5 uM measured upto 45 mins in presence of NADPH by LC-MS/MS analysis; assay type: ADME, Microsome; conditions: read-out: CLH
[2] = Stability in human liver microsomes assessed as half-life at 1.5 uM measured upto 45 mins in presence of NADPH by LC-MS/MS analysis; assay type: ADME, Microsome

CLint scaled at 1.5 µM [1]: 17.3 mL/min/kg | half-life at 1.5 µM [2]: 1.68 h
Structure (SMILES): O=C(c1ccc(F)cc1)C1CCN(CCn2c(=O)[nH]c3ccccc3c2=O)CC1 [KETANSERIN]

Reference: ChEMBL document CHEMBL5634101, “Discovery of NLRP3 inhibitors using machine learning: Identification of a hit compound to treat NLRP3 activation-driven diseases” (Eur J Med Chem, 2023)
